Measurements taken from US7947647B2, “Synthetic mimics of mammalian cell surface receptors: method and compositions” (The Penn State Research Foundation, priority 2004, dated 2011).

How the values were obtained:
[1] = target: rabbit polyclonal anti-DNP IgG; experiment: Fluorescence polarization binding of DNP and NBD derivatives to anti-DNP IgG; conditions: apparent affinity, PBS pH 7.4, read-out: dissociation constants (Kd)
Jurkat lymphocytes [2] = experiment: Antibody uptake assay and uptake kinetics (flow cytometry); assay type: cell-based, human; conditions: for efficiency as mediator of ligand (IgG) uptake: anti-DNP/PrA-AF488, flow cytometry
Experimental: Antibody uptake assays (FIG. 8, Panels A-B, FIG. 10, and FIG. 11). Synthetic receptors 2-9 in DMSO were diluted in RPMI media (0.5 mL, final DMSO concentration=1%) containing Jurkat lymphocytes (1×10^6). These receptor-treated cells were incubated at 37° C. for 1 h, washed with RPMI media (2×0.5 mL) to remove unincorporated receptors/DMSO, and resuspended in fresh media (89 μL). To these cells was added a pre-equilibrated complex (preincubated at 23° C. for 1 h) of anti-DNP IgG (9.6 μg) and the PrA-Alexa Fluor conjugate (PrA-AF488 or PrA-AF633, 3 μg) in phosphate-buffered saline (11 μL, pH 7.4, total volume=100 μL). Cells were typically maintained at 37° C. for 4 h to promote synthetic receptor-mediated endocytosis. Prior to analysis, treated cells were washed with media (0.5 mL), washed again with media containing 6-(2,4-dinitrophenyl)aminohexanoic acid (100 μM, 3×0.5 mL×20 min, 1% DMSO) to compete away any non-internalized protein, washed again with media (0.5 mL), and resuspended in media (0.6 mL) for analysis by epifluorescence microscopy, confocal microscopy, or flow cytometry.
Antibody uptake kinetics (FIG. 8, Panel C). To determine the relative uptake rates shown on the left of FIG. 8C, Jurkat lymphocytes were subjected to the antibody uptake assay (cells were treated with receptors 2-5 at 10 μM for 1 h followed by addition of a pre-equilibrated complex (preincubated at 23° C. for 1 h) of anti-DNP-IgG/PrA-AF488 for 15 min to 4 h) and internalized cellular fluorescence was quantified by flow cytometry. […] Observed rates of ligand uptake (kobs) were calculated with a Michaelis-Menten kinetic model assuming saturating concentrations of substrate (kobs=(Ft−F0)/t). t=time (in minutes), Ft=fluorescence at the specified time, and F0=fluorescence at time=0 min. The slope of plots of fluorescence vs. time provided kobs values that were divided by the basal rate of endocytosis (no receptor) to determine the relative rates of uptake.
These cells were washed with ice-cold media (500 μL) and maintained at 4° C. A pre-equilibrated (1 h at 23° C.) ice-cold solution of RPMI media (100 μL) containing anti-DNP-IgG (7.2 μg) and PrA-AF488 (2 μg) was added. After 1 h at 4° C., the cells were washed with ice-cold RPMI media (2×500 μL). Cells were equilibrated at 37° C. for 20 min prior to fluorescence measurements to dissociate excess surface-bound antibody. After equilibration, uptake experiments were initiated (this was defined as t=0 min). Cells were subsequently incubated at 37° C. for fixed periods of time (0 to 3 h), cooled to 4° C. on ice, and washed with ice-cold RPMI media containing 6-(2,4-dinitrophenyl)aminohexanoic acid (100 μM, 1% DMSO, 3×0.5 mL×10 min at 4° C. followed by 2×0.5 mL×20 min at 23° C.) to remove non-internalized IgG. Intracellular fluorescence was quantified by flow cytometry. Cell surface fluorescence was calculated by subtracting this intracellular fluorescence from cellular fluorescence measured at t=0 min (after the initial equilibration at 37° C. for 20 min; the competition with 6-(2,4-dinitrophenyl)aminohexanoic acid was omitted to analyze this cellular fluorescence).
Synthetic receptors were evaluated as mediators of cellular uptake of protein ligands in living Jurkat lymphocytes, a human T cell line. Confocal laser scanning microscopy and flow cytometry were employed to analyze cells treated with compounds 2-9 for 1 hour followed by addition of anti-DNP IgG complexed with fluorescent conjugates of the IgG-binding protein A (PrA) from S. aureus. […] (FIG. 9, Panel A). This intracellular red fluorescence was 59-fold lower in the absence of receptor 6 consistent with a synthetic receptor-mediated uptake mechanism. The IgG-loaded intracellular compartments were identified as late endosomes and lysosomes by co-localization studies in cells transfected with EGFP-lgp120, a fluorescent protein marker of these compartments.

Jurkat lymphocytes [3] = experiment: Cellular stability (cell surface half-life) of receptor; assay type: cell-based, human; conditions: 10 μM receptor 1 h, detected with anti-DNP/PrA-AF488
Experimental: Quantification of the cellular stability of receptor 2 (FIG. 9, Panel C). Jurkat lymphocytes (1×10^7) were incubated with receptor 2 in media (5 mL, 10 μM receptor, 1% DMSO) for 1 h at 37° C. in a 15 mL aerated centrifuge tube. Cells were washed with media (2×5 mL) to remove unincorporated receptor, resuspended in media (10 mL), transferred 2) to a tissue culture flask (25 cm^2), and maintained at 37° C. At fixed time points, an aliquot of this culture (1 mL) was removed from the flask and cells isolated by centrifugation. These cells were resuspended in media (89 μL) and a pre-equilibrated (23° C. for 1 h) complex of anti-DNP IgG (9.6 μg) and PrA488 (3 μg) in phosphate buffered saline (PBS, 11 μL, pH 7.4) was added for 5 min at 37° C. Treated cells were centrifuged (1300 g for 2 min), the supernatant was removed, cells were resuspended in media (0.5 mL), and cellular fluorescence was analyzed by flow cytometry. […]
To evaluate the temporal stability of receptor 2 on the cell surface, the half-life of this compound on Jurkat lymphocytes was quantified by addition of a soluble antibody. Cells were treated with this receptor for 1 hour (10 μM), unincorporated receptor was removed by washing cells with fresh media, and the abundance of 2 as a function of time was detected with a green fluorescent anti-DNP/PrA-AF488 complex.

Jurkat lymphocytes [4] = experiment: Efflux kinetics from endosomes to plasma membrane by back exchange; assay type: cell-based, human
Experimental: FIG. 11. Quantification of efflux kinetics of receptor 10 from endosomes to the plasma membrane of Jurkat lymphocytes by back exchange. Cells treated with 10 (1 μM, 1 hour) were cooled to 4° C. and cell surface fluorophores removed (>90%) by repeated washing with ice-cold back exchange media containing BSA (1%) and methyl-β-cyclodextrin (2 mM). Cells were resuspended in back exchange media at 37° C. to resume recycling, cellular fluorescence was quantified by flow cytometry, and loss of fluorescence was evaluated with a one-site exponential decay model.
Quantification of efflux kinetics of receptor 10 from endosomes to the plasma membrane by back exchange (FIG. 11). The efficiency of removal of 10 from the plasma membrane was examined prior to analysis of efflux kinetics. Jurkat lymphocytes (3×10^6) were suspended in ice-cold serum free recycling media (1.5 mL) and maintained on ice (2 min) to block plasma membrane recycling. These cells were resuspended in ice-cold serum free recycling media (1.5 mL, 1% DMSO) containing 10 (1 μM) and maintained on ice (10 min) to allow association of 10 with the plasma membrane. Receptor-treated cells were washed with ice-cold serum free recycling media (2×0.5 mL), resuspended in ice-cold serum free recycling media (1.5 mL), and analyzed by flow cytometry.
These cells were washed with serum free recycling media (2×1 mL) to remove unincorporated receptor (10). These receptor-treated cells were cooled on ice (5 min) to halt recycling and washed with ice-cold back-exchange media (6×1.5 mL×10 min) to selectively remove 10 from the cell surface without affecting the population of 10 in intracellular endosomes. These cells were resuspended in warm back exchange media (37° C., 1.5 mL) to initiate plasma membrane recycling and immediately analyzed by flow cytometry (defined as t=0 min). Cells were isolated by centrifugation, resuspended in warm back exchange media (1.5 mL, 37° C.), incubated at 37° C., and analyzed by flow cytometry as a function of time.
To quantify the rate of plasma membrane recycling, oregon green-derived receptor 10 was employed. Unlike the more strongly cell-associated DNP and NBD-based receptors, the compound 10 binds proteins in cell culture media and can be rapidly and efficiently depleted from cell surfaces by washing cells with “back exchange” media containing bovine serum albumin (BSA, 1%) and methyl-beta-cyclodextrin (Me-beta-CD, 2 mM). This concentration of Me-beta-CD is known to affect neither endocytosis nor plasma membrane recycling. The oregon green-fluorophore of 10 was also chosen for these studies because unlike structurally similar carboxydifluorescein the fluorescence of oregon green is not appreciably quenched in acidic environment of endosomal compartments. […]

[5] = tested on: mouse J-774 cells and human HeLa cells; experiment: Flow cytometric analysis of cellular uptake of fluorescent vancomycin 2; assay type: cell-based
Experimental: FIG. 18. Flow cytometric analysis of cellular uptake of fluorescent vancomycin 2 promoted by synthetic receptor 3 and control compounds. Preload conditions: Receptor 3 or analogues (4, 5) were added to cells for 1 h to load the plasma membrane, cells were washed, and 2 (3 μM) was added for 4 h. Premix conditions: Receptor 3 or analogues (4, 5) were preequilibrated with 2 (3 μM) at 23° C. for 1 h followed by addition of this mixture to cells for 4 h.
The dose-dependent effectiveness of delivery of 2 into mouse J-774 cells and human HeLa cells mediated by […] was examined quantitatively by flow cytometry.

[6] = read-out: affinity for vancomycin (Kd); cited from earlier work
[7] = 10 μM receptor for 1 hour, anti-DNP/PrA-AF488

Compound: 6-(7-nitrobenzofuran-4-ylamino)hexanoic acid [compound 28, reference compound]
- Kd [1]: 820 ± 144 nM

Compound: O=C(CCCCCNc1ccc([N+](=O)[O-])cc1[N+](=O)[O-])NCCCNC(=S)Nc1ccc(-c2c3ccc(=O)cc-3oc3cc(O)ccc23)c(C(=O)O)c1 [compound 27]
- Kd [1]: 23 ± 1.5 nM

Compound: CC(C)CCC[C@@H](C)[C@H]1CC[C@H]2[C@@H]3CC=C4C[C@@H](NCCCNC(=O)CCNC(=O)CCNC(=O)CCCCCNc5ccc([N+](=O)[O-])cc5[N+](=O)[O-])CC[C@]4(C)[C@H]3CC[C@]12C [receptor 2, N-(3-{[3-({3-[(3β)-cholest-5-en-3-ylamino]propyl}amino)-3-oxopropyl]amino}-3-oxopropyl)-6-[(2,4-dinitrophenyl)amino]hexanamide]
- enhancement of cellular uptake of anti-DNP IgG in magnitude compared with basal levels of endocytosis (Jurkat lymphocytes [2]; [7]): 208 fold
- enhancement of cellular uptake of anti-DNP IgG in rate compared with basal levels of endocytosis (Jurkat lymphocytes [2]; [7]): 391 fold
- efficiency as mediator of ligand (IgG) uptake (Jurkat lymphocytes [2]): by far the most efficient
- rate of uptake (k) (Jurkat lymphocytes [2]; receptor at 1 μM, anti-DNP-IgG/PrA-AF488, 37° C.): 0.007327 ± 0.000006 min⁻¹
- ligand internalization half-life (t1/2) (Jurkat lymphocytes [2]; receptor at 1 μM, calculated as (ln 2)/k): 1.58 h
- cell surface half-life (Jurkat lymphocytes [3]): 20 h

Compound: CC(C)CCC[C@@H](C)[C@H]1CC[C@H]2[C@@H]3CC=C4C[C@@H](NCCCNC(=O)CCNC(=O)CCCCCNc5ccc([N+](=O)[O-])cc5[N+](=O)[O-])CC[C@]4(C)[C@H]3CC[C@]12C [receptor 3, N-[3-({3-[(3β)-cholest-5-en-3-ylamino]propyl}amino)-3-oxopropyl]-6-[(2,4-dinitrophenyl)amino]hexanamide]
- efficiency as mediator of ligand (IgG) uptake (Jurkat lymphocytes [2]): dramatically diminished the effectiveness

Compound: CC(C)CCC[C@@H](C)[C@H]1CC[C@H]2[C@@H]3CC=C4C[C@@H](NCCCNC(=O)CCCCCNc5ccc([N+](=O)[O-])cc5[N+](=O)[O-])CC[C@]4(C)[C@H]3CC[C@]12C [receptor 4, N-{3-[(3β)-cholest-5-en-3-ylamino]propyl}-6-[(2,4-dinitrophenyl)amino]hexanamide]
- efficiency as mediator of ligand (IgG) uptake (Jurkat lymphocytes [2]): dramatically diminished the effectiveness

Compound: CC(C)CCC[C@@H](C)[C@H]1CC[C@H]2[C@@H]3CC=C4C[C@@H](NC(=O)CCNC(=O)CCCCCNc5ccc([N+](=O)[O-])cc5[N+](=O)[O-])CC[C@]4(C)[C@H]3CC[C@]12C [receptor 5, N-{3-[(3β)-cholest-5-en-3-ylamino]-3-oxopropyl}-6-[(2,4-dinitrophenyl)amino]hexanamide]
- efficiency as mediator of ligand (IgG) uptake (Jurkat lymphocytes [2]): essentially abolished internalization of IgG
- reduction of IgG delivery relative to receptor 4 (secondary amine converted to secondary amide) (Jurkat lymphocytes [2]; at 10 μM): over 50 fold

Compound: CC(C)CCC[C@@H](C)[C@H]1CC[C@H]2[C@@H]3CC=C4C[C@@H](NCCCNC(=O)CCNC(=O)CCNC(=O)CCCCCNc5ccc([N+](=O)[O-])c6nonc56)CC[C@]4(C)[C@H]3CC[C@]12C [receptor 6, N-(3-{[3-({3-[(3β)-cholest-5-en-3-ylamino]propyl}amino)-3-oxopropyl]amino}-3-oxopropyl)-6-(7-nitrobenzofurazan-4-ylamino)hexanamide]
- intracellular red fluorescence lower in the absence of receptor (Jurkat lymphocytes [2]; 10 μM receptor, red fluorescent anti-DNP IgG/PrA): 59 fold

Compound: CC(C)CCCC(C)[C@H]1CCC2C3CC=C4CC(NCCCNC(=O)CCNC(=O)c5ccc(-c6c7cc(F)c(=O)cc-7oc7cc(O)c(F)cc67)c(C(=O)O)c5)CC[C@]4(C)C3CC[C@@]21C (stereo partly shown) [receptor 10]
- recycling half-life (Jurkat lymphocytes [4]; 1 μM, back exchange media 37° C., one-phase exponential decay): 2.8 ± 0.8 min
- removal of receptor from the cell surface (Jurkat lymphocytes [4]; additional/repeated wash steps with back-exchange media): > 90%
- loss of total cellular fluorescence (Jurkat lymphocytes [4]; four total wash steps with back-exchange media, 1 μM): 84%
- loss of total cellular fluorescence (Jurkat lymphocytes [4]; single wash with ice-cold back-exchange media, 1 μM): 44%

Compound: AcNH-D-Phe-D-Ala-CO2H
- effect of soluble competitor on receptor-mediated ligand uptake [5]: blocked

Compound: D-Phe-D-Ala [D-Phe-D-Ala dipeptide]
- Kd [6]: ~7000 nM
